We go through 12 molecules from PMC9231160, “Monoterpenoid Glycosides from the Leaves of Ligustrum robustum and Their Bioactivities” (Molecules, 2022).

Molecules are shown by their SMILES. “Also recorded” adds a separate entry of the source.

Assay [1] has as its target T1, fatty acid synthase (FAS) (Gallus gallus, UniProt P12276).
T1 construct: isolated from chicken liver and kept in ice-bath; from tissue; host or cells: chicken liver
Put plainly: FAS inhibitory activity. Type of assay: biochemical, chicken. The conditions noted are these: for IC50: FAS isolated from chicken liver, mean ± SD (n = 3), NA = no activity; for FAS inhibitory activity (in words): qualitative statement. The method, then: (§1) All samples were measured in triplicate. […] Differences of means between groups were analyzed by one-way analysis of variance (ANOVA) on statistical package SPSS 13.0. The differences between groups were believed to be significant when p < 0.05.
S1. Determination of bioactivities.
S1.1. Determination of FAS inhibitory activity. […]
diluted with potassium phosphate buffer (0.1 M, pH 7.0). Sample solution (100 μL, 20-2000 μM, 37 °C) and FAS substrates (1.8 mL, 37 °C) were mixed in a cuvette, and then FAS solution (100 μL, 37 °C, isolated from chicken liver and kept in ice-bath before use) was added. The absorbance of reaction mixture was monitored by a UV-vis spectrophotometer at 340 nm in 1 min. The inhibitory effect was calculated by the following equation: FAS inhibition (%) = (Acontrol - Asample)/Acontrol × 100%, where Acontrol represented the FAS activity in the control group (phosphate buffer instead of sample solution), Asample represented the FAS activity in the sample groups. The FAS activity was calculated as (A0 - A1)/1 min, in which A0 was the absorbance of the reaction mixture when the FAS was added, and A1 was the absorbance of the reaction mixture after reaction 1 min. Orlistat was used as the positive control.
FAS substrates: 0.1 M potassium phosphate buffer (pH 7.0), 1 mM ethylene-

The next assay relates to α-Glucosidase from yeast. In words: α-glucosidase inhibitory activity. In kind it is biochemical. The settings on record: for α-Glucosidase Inhibition at 0.1 mM: mean ± SD (n = 3), NA = no activity. Here is the method:
as §1
S1. Determination of bioactivities. […]
S1.2. Determination of α-glucosidase inhibitory activity. […]
diluted with phosphate buffer (0.1 M, pH 6.8). […]
and 4-nitrophenyl α-D-glucopyranoside (pNPG) solution (50 μL, 5 mM) were mixed and incubated in a 96-well microplate at 37 °C for 5 min. α-Glucosidase from yeast (50 μL, 0.2 U/mL) was added and incubated at 37 °C for another 30 min. Finally, 50 μL of Na2CO3 (1M) was added to terminate the reaction. The absorbance of mixture was measured using a microplate reader at a wavelength 405 nm. […]
following equation: α-glucosidase inhibition (%) = (Acontrol - Asample)/Acontrol × 100%, where Acontrol represented the absorbance of phosphate buffer control without test samples, Asample represented the absorbance of test samples. Acarbose was used as the […]

Another assay relates to α-amylase. In words: α-amylase inhibitory activity. Type of assay: biochemical. The settings on record: for α-Amylase Inhibition at 0.1 mM: mean ± SD (n = 3), NA = no activity. Here is the method: as §1
(§2) S1.3. Determination of α-amylase inhibitory activity.
Phosphate buffer (20 mM, pH 6.9, containing 6 mM NaCl) was used as the […]
μL, 1%, w/v) were mixed and incubated in a 96-well microplate at 37 °C for 10 min.
Then, α-amylase solution (50 μL, 0.2 U/mL) was added and the mixture was incubated at 37 °C for an additional 10 min. The reaction was stopped by addition of […]
microplate was immediately heated in 95 °C water bath for 10 min. When the reaction solution cooled to room temperature, all samples were diluted by adding distilled water (50 μL), and then their absorbance was measured using a microplate reader at […]
starch solution) at 540 nm, thus the inhibitory activity was calculated as (Acontrol - Asample)/Acontrol × 100%, in which Asample was the absorbance of the sample and Acontrol was the absorbance of the phosphate buffer control without test samples. Acarbose was used as the positive control.
(§3) S1.4. DPPH radical scavenging assay […]

Assay [2] is described as follows: ABTS radical scavenging assay. The conditions noted are these: mean ± SD (n = 3). Here is the method:
All samples were measured in triplicate. […] Differences of means between groups were analyzed by one-way analysis of variance (ANOVA) on statistical package SPSS 13.0. The differences between groups were believed to be significant when p < 0.05. […]
as §3
S1.5. ABTS radical scavenging assay
The ABTS radical scavenging assay was used also to evaluate the antioxidant
The ABTS free radical cation (ABTS•+ ) was
manufactured by reacting ABTS stock solution (7 mM) with potassium persulphate

A short description of assay [3]: DPPH radical scavenging assay. The conditions noted are these: mean ± SD (n = 3), NA = no activity. The method, then:
Statistical analyses were carried out on GraphPad Prism 5.01. All samples were measured in triplicate. The IC50 (the final concentration of sample needed to inhibit 50% of enzyme activity or scavenge 50% of free radical) was obtained by plotting the inhibition or scavenging percentage of each sample against its concentration. The results are reported as mean ± standard deviation (SD). Differences of means between groups were analyzed by one-way analysis of variance (ANOVA) on statistical package SPSS 13.0. The differences between groups were believed to be significant when p < 0.05.
as §2
Phosphate buffer (20 mM, pH 6.9, containing 6 mM NaCl) was used as the solvent in this assay. Sample solution (50 μL, 50-1500 μM) and starch solution (50 μL, 1%, w/v) were mixed and incubated in a 96-well microplate at 37 °C for 10 min.
Then, α-amylase solution (50 μL, 0.2 U/mL) was added and the mixture was incubated at 37 °C for an additional 10 min. […] When the reaction solution cooled to room temperature, all samples were diluted by adding distilled water (50 μL), and then their absorbance was measured using a microplate reader at 540 nm. All samples had little background absorbance (phosphate buffer instead of starch solution) at 540 nm, thus the inhibitory activity was calculated as (Acontrol - Asample)/Acontrol × 100%, in which Asample was the absorbance of the sample and Acontrol was the absorbance of the phosphate buffer control without test samples. […]
The DPPH radical scavenging assay was used to evaluate the antioxidant activity of compounds 1-11. […] The absorbance of the reaction mixture was measured at 517 nm using a microplate reader. The DPPH scavenging activity was calculated by the following formula: DPPH scavenging activity (%) = (Acontrol - Asample)/Acontrol × 100%, where Acontrol was the absorbance of ethanol control without samples, Asample was the absorbance of sample. […]
On the technique in general: The DPPH test is a chemical assay of radical scavenging.

[4] abbreviates: qualitative statement, compared with positive control acarbose.

T1 sequence (P12276 whole entry): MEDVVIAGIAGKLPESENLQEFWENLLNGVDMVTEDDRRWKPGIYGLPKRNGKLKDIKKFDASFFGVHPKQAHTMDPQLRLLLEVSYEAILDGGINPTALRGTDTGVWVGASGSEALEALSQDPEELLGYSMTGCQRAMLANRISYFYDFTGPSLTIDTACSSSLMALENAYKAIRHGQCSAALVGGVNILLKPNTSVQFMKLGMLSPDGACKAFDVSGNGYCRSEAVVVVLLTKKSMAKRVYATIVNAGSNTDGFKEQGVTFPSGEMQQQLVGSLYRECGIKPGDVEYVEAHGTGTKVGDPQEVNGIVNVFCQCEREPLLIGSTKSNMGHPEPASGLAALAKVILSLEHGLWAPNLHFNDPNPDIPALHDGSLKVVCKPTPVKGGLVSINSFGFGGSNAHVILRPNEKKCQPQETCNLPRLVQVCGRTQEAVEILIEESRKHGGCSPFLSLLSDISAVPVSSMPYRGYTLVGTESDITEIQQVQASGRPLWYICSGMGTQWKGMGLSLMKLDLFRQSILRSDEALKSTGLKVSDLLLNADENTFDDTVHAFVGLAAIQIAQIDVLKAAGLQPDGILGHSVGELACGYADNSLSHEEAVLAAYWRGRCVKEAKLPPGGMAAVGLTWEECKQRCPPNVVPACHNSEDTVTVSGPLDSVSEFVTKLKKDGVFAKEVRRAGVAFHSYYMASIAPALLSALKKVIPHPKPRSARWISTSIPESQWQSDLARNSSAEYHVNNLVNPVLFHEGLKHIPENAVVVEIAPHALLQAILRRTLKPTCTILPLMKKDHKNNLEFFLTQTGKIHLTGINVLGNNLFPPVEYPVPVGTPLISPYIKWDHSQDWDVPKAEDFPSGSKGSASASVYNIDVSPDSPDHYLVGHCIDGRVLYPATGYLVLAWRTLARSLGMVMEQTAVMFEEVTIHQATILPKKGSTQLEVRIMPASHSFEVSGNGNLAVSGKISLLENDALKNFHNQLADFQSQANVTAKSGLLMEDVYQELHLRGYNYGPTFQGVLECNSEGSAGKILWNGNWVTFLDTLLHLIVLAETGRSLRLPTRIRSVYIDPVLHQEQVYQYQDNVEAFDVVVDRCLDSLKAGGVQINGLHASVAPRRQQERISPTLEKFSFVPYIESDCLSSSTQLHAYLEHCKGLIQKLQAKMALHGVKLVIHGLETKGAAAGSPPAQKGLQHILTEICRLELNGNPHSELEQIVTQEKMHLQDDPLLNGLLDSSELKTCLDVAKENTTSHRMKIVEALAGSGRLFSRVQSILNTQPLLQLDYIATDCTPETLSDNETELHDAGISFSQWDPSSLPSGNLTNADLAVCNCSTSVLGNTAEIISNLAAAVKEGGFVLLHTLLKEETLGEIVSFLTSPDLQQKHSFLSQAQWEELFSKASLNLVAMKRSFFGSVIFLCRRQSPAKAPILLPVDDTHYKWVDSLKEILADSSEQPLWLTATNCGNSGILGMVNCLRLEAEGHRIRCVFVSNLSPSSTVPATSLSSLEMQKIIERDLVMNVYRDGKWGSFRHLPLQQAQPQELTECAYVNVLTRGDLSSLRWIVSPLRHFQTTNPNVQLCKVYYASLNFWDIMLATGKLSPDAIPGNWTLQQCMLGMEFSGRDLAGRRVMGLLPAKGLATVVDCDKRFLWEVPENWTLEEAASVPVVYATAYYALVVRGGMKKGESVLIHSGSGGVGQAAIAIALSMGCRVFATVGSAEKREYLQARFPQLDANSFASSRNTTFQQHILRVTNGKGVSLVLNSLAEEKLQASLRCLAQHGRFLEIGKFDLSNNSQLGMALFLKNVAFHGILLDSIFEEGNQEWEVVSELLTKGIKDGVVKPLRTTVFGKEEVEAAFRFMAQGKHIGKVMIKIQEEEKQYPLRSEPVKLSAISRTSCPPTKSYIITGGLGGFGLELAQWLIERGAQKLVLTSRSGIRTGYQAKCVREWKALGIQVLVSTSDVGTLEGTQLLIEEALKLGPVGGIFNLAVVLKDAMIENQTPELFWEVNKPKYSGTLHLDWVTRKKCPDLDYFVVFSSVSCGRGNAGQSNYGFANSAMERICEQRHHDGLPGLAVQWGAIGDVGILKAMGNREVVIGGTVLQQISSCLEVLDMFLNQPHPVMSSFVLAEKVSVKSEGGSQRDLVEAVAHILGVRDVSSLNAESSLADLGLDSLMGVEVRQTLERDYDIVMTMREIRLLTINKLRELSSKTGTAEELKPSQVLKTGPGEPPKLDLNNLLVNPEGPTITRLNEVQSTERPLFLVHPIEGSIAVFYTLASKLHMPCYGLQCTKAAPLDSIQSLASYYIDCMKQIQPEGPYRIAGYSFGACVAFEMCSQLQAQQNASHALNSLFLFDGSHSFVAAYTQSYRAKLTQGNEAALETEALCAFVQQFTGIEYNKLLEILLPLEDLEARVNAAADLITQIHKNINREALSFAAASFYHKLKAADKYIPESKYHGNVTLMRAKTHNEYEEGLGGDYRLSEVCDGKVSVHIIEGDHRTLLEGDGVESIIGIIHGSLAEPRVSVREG

As to `COC(C)(C)C=CCC(C)=CCOC1OC(COC(=O)C=Cc2ccc(O)cc2)C(O)C(OC2OC(C)C(O)C(O)C2O)C1O` (centres unmarked) [Compound 8], the IC50 (as a rule, the concentration that inhibits the measured activity by half) was determined as 25.8 ± 0.47 µM in assay [1] and 19.5 ± 0.46 µM in assay [2]. In addition, the “α-Glucosidase Inhibition at 0.1 mM” value in the assay with α-Glucosidase from yeast stood at 24.7 ± 3.5 c %. In the assay on α-amylase, the “α-Amylase Inhibition at 0.1 mM” value is 31.4 ± 1.9 b %.
With `C=CC(C)(CCC(O)C(C)(C)O)OC1OC(COC(=O)C=Cc2ccc(O)cc2)C(O)C(OC2OC(C)C(O)C(O)C2O)C1O` (centres unmarked) [Compound 4], the IC50 was over 100 µM in assay [1] and 9.66 ± 0.17 µM in assay [2]. Also, the “α-Amylase Inhibition at 0.1 mM” value in the assay on α-amylase is reported as 28.2 ± 3.9 b %.
As for `C=CC(C)(CCC(O)C(=C)C)O[C@@H]1O[C@H](COC(=O)/C=C/c2ccc(O)cc2)[C@@H](O)[C@H](O[C@@H]2O[C@@H](C)[C@H](O)[C@@H](O)[C@H]2O)[C@H]1O` (stereo partly drawn) [Compound 3, 3-(3,6-dihydroxy-3,7-dimethyl-octa-1,7-dienyl)-(3-O-α-L-rhamnopyranosyl)-(6-O-trans-p-coumaroyl)-O-β-D-glucopyranoside], the IC50 was 21.8 ± 0.38 µM in assay [1] and 16 ± 0.69 µM in assay [2]. For the same molecule, the “α-Glucosidase Inhibition at 0.1 mM” value in the assay with α-Glucosidase from yeast stood at 27.3 ± 0.3 c %. Moreover, the “α-Amylase Inhibition at 0.1 mM” value with α-amylase worked out at 32.5 ± 6.3 b %.
For the molecule `CC(=CCOC1OC(CO)C(OC(=O)C=Cc2ccc(O)cc2)C(OC2OC(C)C(O)C(O)C2O)C1O)CCC(O)C(C)(C)O` (centres unmarked) [Compound 11], the figures for the IC50 in assay [1] and in assay [2] were 61.74 ± 0.45 µM and 7.92 ± 0.23 µM, respectively. In addition, the “α-Amylase Inhibition at 0.1 mM” value with α-amylase is on record as 31.3 ± 1.3 b %.
With `C=CC(C)(C/C=C/C(C)(C)OC)O[C@@H]1O[C@H](COC(=O)/C=C/c2ccc(O)cc2)[C@@H](O)[C@H](O[C@@H]2O[C@@H](C)[C@H](O)[C@@H](O)[C@H]2O)[C@H]1O` (stereo partly drawn) [Compound 5, (5E)-3-(3-hydroxy-7-methoxy-3,7-dimethyl-octa-1,5-dienyl)-(3-O-α-L-rhamnopyranosyl)-(6-O-trans-p-coumaroyl)-O-β-D-glucopyranoside], the figures for the IC50 in assay [1] and in assay [2] were 23.7 ± 0.45 µM and 6.93 ± 0.01 µM, respectively. For the same molecule, the “α-Glucosidase Inhibition at 0.1 mM” value in the assay on α-Glucosidase from yeast was 13.8 ± 2.0 d %. The “α-Amylase Inhibition at 0.1 mM” value in the assay on α-amylase is given as 35.6 ± 2.0 b %.
On to `O=C1O[C@H]([C@@H](O)CO)C(O)=C1O` [L-(+)-ascorbic acid, reference compound], for which, in assay [3], the IC50 is 13.66 ± 0.13 µM.
Turning to `C=CC(C)(CCC=C(C)C)O[C@@H]1O[C@H](CO)[C@@H](OC(=O)/C=C/c2ccc(O)c(O)c2)[C@H](O[C@@H]2O[C@@H](C)[C@H](O)[C@@H](O)[C@H]2O)[C@H]1O` (mixture of isomers) [Compound 1, 3(R)- and 3(S)-linaloyl-(3-O-α-L-rhamnopyranosyl)-(4-O-trans-caffeoyl)-O-β-D-glucopyranoside], the IC50 in assay [3] is 19.7 ± 0.23 µM; in assay [2] it was 6.91 ± 0.1 µM.
As for `C=CC(C)(CCC=C(C)C)O[C@@H]1O[C@H](COC(=O)/C=C/c2ccc(O)cc2)[C@@H](O)[C@H](O[C@@H]2O[C@@H](C)[C@H](O)[C@@H](O)[C@H]2O)[C@H]1O` (mixture of isomers) [Compound 2, 3(R)- and 3(S)-linaloyl-(3-O-α-L-rhamnopyranosyl)-(6-O-trans-p-coumaroyl)-O-β-D-glucopyranoside], the values for the IC50 in assay [1], in assay [3] and in assay [2] were 2.36 ± 0.1 µM, over 250 µM and 9.41 ± 0.22 µM, respectively. Further, the “FAS inhibitory activity (in words)” value in assay [1] is given as “strong FAS inhibitory activity”. The “α-Glucosidase Inhibition at 0.1 mM” value in the assay on α-Glucosidase from yeast stood at 48.1 ± 4.3 b %. Moreover, the “α-glucosidase inhibitory effect (in words)” value in the assay with α-Glucosidase from yeast (setting [4]) was “weaker α-glucosidase inhibitory effect than the positive control acarbose; also recorded: moderate”. Further, the “α-Amylase Inhibition at 0.1 mM” value with α-amylase is 31.5 ± 0.5 b %. Further, the “α-amylase inhibitory effect (in words)” value with α-amylase (setting [4]) is on record as “moderate”.
For `CC(C)=CCC/C(C)=C/CO[C@@H]1O[C@H](CO)[C@@H](OC(=O)/C=C/c2ccc(O)cc2)[C@H](O[C@@H]2O[C@@H](C)[C@H](O)[C@@H](O)[C@H]2O)[C@H]1O` [Compound 10, ligurobustoside C], in assay [1], the midpoint of inhibition, the IC50, lay at 4.68 ± 0.16 µM and the “FAS inhibitory activity (in words)” value was “strong FAS inhibitory activity”. Further, the “α-Glucosidase Inhibition at 0.1 mM” value in the assay on α-Glucosidase from yeast is listed as 28.7 ± 2.1 c %. In assay [2], this molecule showed an IC50 of 15.1 ± 0.1 µM.
For `C=CC(C)(CCC=C(C)C)O[C@@H]1O[C@H](CO)[C@@H](OC(=O)/C=C/c2ccc(O)cc2)[C@H](O[C@@H]2O[C@@H](C)[C@H](O[C@@H]3O[C@@H](C)[C@H](O)[C@@H](O)[C@H]3O)[C@@H](O)[C@H]2O)[C@H]1O` (stereo partly drawn) [Compound 6, linaloyl-[3-O-α-L-rhamnopyranosyl-(1→4)-α-L-rhamnopyranosyl]-(4-O-trans-p-coumaroyl)-O-β-D-glucopyranoside], in assay [1], the IC50 turned out to be 4.78 ± 0.14 µM and the “FAS inhibitory activity (in words)” value is reported as “strong FAS inhibitory activity”. In addition, in the assay with α-Glucosidase from yeast, the “α-Glucosidase Inhibition at 0.1 mM” value is recorded as 12.0 ± 1.7 d %. The “α-Amylase Inhibition at 0.1 mM” value in the assay with α-amylase turned out to be 26.1 ± 3.0 b %. This molecule returned an IC50 in assay [2] of 11.3 ± 0.16 µM.
`C=C(C)C(O)CCC(C)=CCOC1OC(CO)C(OC(=O)C=Cc2ccc(O)cc2)C(OC2OC(C)C(O)C(O)C2O)C1O` (centres unmarked) [Compound 9]: the IC50 in assay [1] amounted to 21.7 ± 0.46 µM; in assay [2] it was 18.7 ± 0.47 µM. Further, the “α-Glucosidase Inhibition at 0.1 mM” value in the assay with α-Glucosidase from yeast is 12.4 ± 5.6 d %. Also, in the assay on α-amylase, the “α-Amylase Inhibition at 0.1 mM” value is listed as 29.2 ± 8.4 b %.
Turning to `C=CC(C)(CCC=C(C)C)O[C@@H]1O[C@H](CO)[C@@H](OC(=O)/C=C\c2ccc(O)cc2)[C@H](O[C@@H]2O[C@@H](C)[C@H](O[C@@H]3O[C@@H](C)[C@H](O)[C@@H](O)[C@H]3O)[C@@H](O)[C@H]2O)[C@H]1O` (stereo partly drawn) [Compound 7, linaloyl-[3-O-α-L-rhamnopyranosyl-(1→4)-α-L-rhamnopyranosyl]-(4-O-cis-p-coumaroyl)-O-β-D-glucopyranoside], the IC50 in assay [1] was over 100 µM; in assay [2], 20.2 ± 0.33 µM.
